Experimental data published in US20250262223A1, “METHODS FOR THE TREATMENT OF BIOLOGICAL AGING” (BIOVIE INC., priority 2022, published 2025).

Experiments:
[1] = test system: ERK- and NF-κB-stimulated inflammatory mediators, including TNF-α; settings: without inhibiting their homeostatic functions; cited from earlier work
CpGs (DNA methylation) = experiment: Illumina 850K array DNA methylation changes following 14 weeks of bezisterim treatment; type: in vivo, human; settings: for decrease in DNAm: 14 weeks
Method: In this study, 23 mild cognitive impaired (“MCI”) and Alzheimer's disease (“AD”) subjects were enrolled based on Clinical Dementia Rating (“CDR”) from their Quick Dementia Rating System (“QDRS”) scale. Advanced MRI imaging (ASL, BOLD, MRS, task-based fMRI) was also performed as well as cognition and memory tests were performed (Cog12, MM SE, QDRS, MoCA). Biomarkers of the subjects were also taken (csf p-Tau, A beta, and plasma TNF) and episome analyses were performed. Finally, a biological clock analysis was performed (DNA methylation profiling).
Illumina® 850K array DNA methylation changes following 14 weeks of bezisterim treatment were sorted and the top 400 decreased CpGs (decreases >50%) were explored for correlations with changes in clinical results following treatment. Of these, 366 have CpG gene identifications.

[2] = cited from earlier work
[3] = Phase 3 trial, metabolic changes and correlations; type: in vivo, human
Method: Subjects metabolic and correlation changes were analyzed. Many of the genes associated with LOAD (late onset Alzheimer's disease) are related to cholesterol metabolism, which is decreased in AD neuron membranes. Insulin and glycemic controls are known to be involved in neurodegeneration. […] Increased mean amplitude of glycemic excursion (MAGE from CGM) increased risk of Alzheimer's disease progression. Leptin is an anti-inflammatory, neuroprotective and is decreased in AD. […] The results are described in Tables 4 and 5.
FIGS. 17A-17C illustrates graphs representing increased fasting insulin and HOMA2-% B with decreased HOMA2-% S w/o hypoglycemia. Table 10 provides additional information regarding the fasting insulin and HOMA2-% B with decreased HOMA2-% S w/o hypoglycemia.

Phase 3 adverse effects = type: in vivo
[4] = Phase 3 neuropsychiatric inventory; type: in vivo, human; settings: blinded Phase 3 data, NE3107 and placebo pooled
Method: Subjects were analyzed for neuropsychiatric inventory. […] An improvement in appetite was also correlated with decreased Cog12, CDR SB and ADCOMS, with increased Alzheimer's disease. A decrease in anxiety was correlated with an increase ADL and decreased CGIC. Sleep improvement was correlated with a decrease in CGIC and decreased in TNFα. The results are described in Table 8 and FIGS. 16A-16B.

[5] = test system: extracellular signal-regulated kinase; settings: cited from earlier work
[6] = Phase 3 imaging sub-study FDG-PET; type: in vivo, human; settings: subjects with a baseline whole cortex suvr <1.29; blinded Phase 3 data, NE3107 and placebo pooled
Method: Subjects were analyzed using a fluorodeoxyglucose (FDG)-positron emission tomography (PET) imaging scans. FDG-PET standardized uptake value ratios (“suvr”) were increased in 14/24 subjects with a baseline whole cortex suvr <1.29. […] Cholesterol increases trended with increased Cingulate suvr. The results are described in Table 7 and FIG. 15.

[7] = Phase 3 imaging sub-study vMRI; type: in vivo, human; settings: 23 subjects; blinded Phase 3 data, NE3107 and placebo pooled
Method: Subjects were analyzed using imaging sub-studies vMRI on 23 subjects. It was observed that the volume was increased in the hippocampus and amygdala. In addition, it was observed a decreased CGIC was correlated with decreased hippocampi volume and increased MCP-1 was correlated with increased whole cortex. The results are described in FIGS. 14A-14B and Table 6.

[8] = test system: p-IKK beta, p-ERK, p-P38 and p-JNK (Tau phosphorylation); experiment: in vitro samples: activation of inflammatory kinases and p-Tau; type: cell-based
Source text: Without wishing to be bound by theory, it is believed that 17α-ethynylandrost-5-ene-3β,7β,17β-triol binds to ERK 1 and ERK 2, which decreases inflammatory activation of p-IKK beta, p-JNK, p-ERK and p-P38, thereby decreasing serine IRS1 phosphorylation, restoring tyrosine IRS1 phosphorylation and insulin sensitivity.

[9] = P < 0.0001, blinded Phase 3 data, NE3107 and placebo pooled
[10] = blinded Phase 3 data, NE3107 and placebo pooled

SMILES: C#C[C@]1(O)CC[C@H]2[C@@H]3[C@@H](O)C=C4C[C@@H](O)CC[C@]4(C)[C@H]3CC[C@@]21C [NE3107, 17α-ethynylandrost-5-ene-3β,7β,17β-triol]
- inhibition of inflammation-driven ERK- and NF-κB-stimulated inflammatory mediators, including TNF-α [1]: selectively inhibit
- DNA methylation decrease of the top 400 decreased CpGs (CpGs (DNA methylation); 14 weeks of treatment): > 50%
- decrease in DNAm (CpGs (DNA methylation); HLA-L): 56%
- decrease in DNAm (CpGs (DNA methylation); KCNQ1DN): 51%
- decrease in DNAm (CpGs (DNA methylation); SLC26A1): 55%
- blood-brain permeability [2]: blood-brain permeable
- Hypoglycemia ([3]; Increased Fasting Insulin: No, blinded Phase 3 data): 2
- Hypoglycemia ([3]; Increased Fasting Insulin: Yes, blinded Phase 3 data): 0
- HOMA2-% B, Change from Baseline [3, 9]: +13.5%, *
- HOMA2-% S, Change from Baseline [3, 9]: −21.2%, *
- Insulin, Change from Baseline [3, 9]: +1.9 μlU/mL,*
- Cholesterol, Change from Baseline [3, 10]: +3.0 mg/dL
- Leptin, V10 median [3, 10]: 29.2 ng/mL
- Leptin DNAm ([3]; in vivo): increase
- MAGE, Change from Baseline ([3]; mean amplitude of glycemic excursion from CGM, blinded Phase 3 data, NE3107 and placebo pooled): -0.57 mg/dL
- Hypoglycemia ([3]; with increased insulin and HOMA2-% B and decreased HOMA2% insulin sensitivity, blinded Phase 3 data): no cases of hypoglycemia
- subjects discontinued due to a reported AE (Phase 3 adverse effects; 10 subjects of 439 enrolled, blinded, NE3107 and placebo pooled): 2.3%
- serious AEs (Phase 3 adverse effects; 12, blinded, NE3107 and placebo pooled): 2.7%
- related AEs (Phase 3 adverse effects; 43, blinded, NE3107 and placebo pooled): 9.8%
- subjects who experienced 1 or more AEs (Phase 3 adverse effects; 156 of 439 subjects, blinded, NE3107 and placebo pooled): 35.5%
- serious AEs that resulted in death (Phase 3 adverse effects; count, not known whether on IP or placebo): 1
- neuropsychiatric inventory, overall improvement in sleep ([4]; p<0.0001): −1.0
- neuropsychiatric inventory, overall improvement in appetite ([4]; p<0.023): −1.0
- binding to extracellular signal-regulated kinase [5]: binds
- subjects with increased FDG-PET standardized uptake value ratios (suvr) [6]: 14/24
- vMRI amygdala volume [7]: increased
- vMRI hippocampus volume [7]: increased
- Akt inhibition of GSK 3beta [8]: increased Akt inhibition of GSK 3beta
- activation of inflammatory p-IKK beta, p-ERK, p-P38 and p-JNK ([8]; in vitro samples): decreased activation
- p-Tau ([8]; in vitro samples): decreased p-Tau
